Data taken from ChEMBL document CHEMBL1159011, “Four new bioactive polyhydroxylated sterols from the black coral Antipathes subpinnata” (J Nat Prod, 1992).
Converted amounts (≈) assume the structure as drawn.

Experiment: Toxicity against Artemia salina after 24 hrs
Assay type: organism-based
Conditions: in vivo

Structure (SMILES)	LC50 at 24 h [µg/mL]
CC(C)CCC[C@@H](C)[C@H]1CC[C@H]2[C@@H]3[C@@H](O)C=C4C[C@@H](O)CC[C@]4(CO)[C@@]3(O)CC[C@]12C	7.2 (≈ 16.6 µM)
CC(C)C/C=C/[C@@H](C)[C@H]1CC[C@H]2[C@@H]3[C@@H](O)C=C4C[C@@H](O)CC[C@]4(CO)[C@H]3CC[C@]12C	30.7 (≈ 73.7 µM)
CC(C)CCC[C@](C)(O)[C@H]1C(=O)C[C@H]2[C@@H]3CCC4=CC(=O)C=C[C@]4(C)[C@H]3CC[C@@]21CO	139 (≈ 325 µM)
CC(C)CCC[C@@H](C)[C@H]1CC[C@H]2[C@@H]3[C@@H](O)C=C4C[C@@H](O)CC[C@]4(CO)[C@H]3CC[C@]12C	55.6 (≈ 133 µM)
